Test results reported in PubChem BioAssay AID1996.
Values after ≈ are worked out from the molar mass of the structure shown.

Settings: buffer; pH 7.4; 200.0 µM

Row | Structure (SMILES) | solubility kinetic [µg/mL]
1 | Cc1ccc(NC(=O)N2CCCCCC2)c(C)c1 | > 37
2 | C/C=C/C(=O)N1c2ccc(C)cc2C(C)=CC1(C)C | 1.2 (≈ 4.7 µM)
3 | Nc1c(NC=O)c(=O)n(Cc2ccccc2)c(=O)n1Cc1ccccc1 | 52.1 (≈ 149 µM)
4 | O=C(CCC(=O)c1ccccc1)Nc1ccc(C(=O)O)cc1 | > 44.6
5 | COc1ccccc1Cn1c(=O)oc2ccc(C)cc21 | 2.9 (≈ 10.8 µM)
6 | O=C(COC(=O)c1ccc(O)cc1)NCCC1=CCCCC1 | > 45.5
7 | COc1cccc(C(=O)NCC(=O)OCC(=O)NC2CCCCC2)c1 | > 52.3
8 | COc1ccc(/C=C/C(=O)N2CCN(c3ccccn3)CC2)cc1OC | > 53
9 | O=C(NCc1ccccc1CN1CCCC1)c1cc2ccccc2o1 | > 50.2
10 | CNC(=O)CSc1nc2ccccc2c(=O)n1C1CCCCC1 | > 49.7
11 | O=C(Nc1ccccc1)N1CCCN(c2nccc(C(F)(F)F)n2)CC1 | 1.7 (≈ 4.65 µM)
12 | CN(C)c1ccc(C=NCC2COc3ccccc3O2)cc1 (stereo not drawn) | > 44.5
13 | COc1cc(CN=C(C)c2c(O)n(C3CCCCC3)c(=O)[nH]c2=O)cc(OC)c1 | < 0.3
14 | Nc1cccc(CCc2ccncc2)c1 | > 29.7
15 | COc1ccc(CNC(=O)C(C)N(C)Cc2cccc(F)c2)cc1 (stereo not drawn) | 26.1 (≈ 79 µM)
16 | O=C(CCl)Nc1ccccc1C(=O)c1ccccc1 | > 41.1
17 | CC(=O)c1ccc(NC(=S)Nc2ccc3[nH]c(=O)[nH]c3c2)cc1 | 5.6 (≈ 17.2 µM)
18 | CCOC(=O)c1cc(C#N)c(N2CCCNCC2)nc1C(F)(F)F | > 51.3
19 | C/C(=N\OCC(=O)O)c1ccc(Cl)cc1 | > 34.1
20 | COCCN(C)Cc1nc(C(c2ccccc2)c2ccccc2)no1 | 37.7 (≈ 112 µM)
21 | CN1CCN2c3ccccc3CC3(C(=O)N(C)C(=O)N(C)C3=O)C2C1 (stereo not drawn) | > 51.4
22 | CC(=O)c1cccc(OCC(=O)N(C)CC(=O)NCc2ccco2)c1 | > 51.7
23 | CC(C)[N+](C)(CCOC(=O)C1c2ccccc2Oc2ccccc21)C(C)C.[Br-] | > 67.3
24 | CC(NC(=O)COC(=O)c1cc(Cl)nc(Cl)c1)c1ccccc1 (stereo not drawn) | > 53

Row | Structure (SMILES) | solubility kinetic [µg/mL]
25 | O=c1[nH]cnc2c1C(c1ccccc1)c1c(nc[nH]c1=O)O2 | > 44.1
26 | Cn1cnnc1SCC(=O)NC1CCCCCC1 | > 40.3
27 | CC(C(=O)Nc1ccc(Cl)cc1)N(C)Cc1cccs1 (stereo not drawn) | 13.4 (≈ 43.4 µM)
28 | COC(=O)c1ccc(S(=O)(=O)NCc2ccco2)n1C | 44.3 (≈ 148 µM)
29 | CCOC(=O)NC(=S)Nc1ccc(C(C)(C)C)cc1Br | 1.6 (≈ 4.45 µM)
30 | COc1ccc(C(C)(C)C)cc1NC(=O)COC(=O)CN1C(=O)NC2(CCCCC2C)C1=O (stereo not drawn) | 38 (≈ 82.7 µM)
31 | O=C(Nc1ccc2ccccc2c1)c1cccc(F)c1 | 1.3 (≈ 4.9 µM)
32 | C=C(C)COc1ccc(-c2ncncc2-c2ccccc2OC)c(O)c1 | 5.5 (≈ 15.8 µM)
33 | COC(=O)c1ccc(S(=O)(=O)c2ccc(Cl)cc2)c(N)c1 | 1.2 (≈ 3.68 µM)
34 | C/C(=N/OC(=O)C1CC1c1ccccc1)c1ccccc1 (stereo not drawn) | 3.6 (≈ 12.9 µM)
35 | CCc1nc2ccccc2n1CC(=O)NC1CCS(=O)(=O)C1 (stereo not drawn) | > 48.2
36 | CC(=O)C1=C(O)C(=O)N(c2ccc(O)cc2)C1c1cccc(F)c1 (stereo not drawn) | > 49.1
37 | Cc1ccc(N(CC(=O)N2CCCC2)S(C)(=O)=O)cc1C | > 46.6
38 | COc1cccc(C2N(Cc3ccccc3)C(=O)C2(F)F)c1OC (stereo not drawn) | 15.2 (≈ 45.6 µM)
39 | Cc1ccc(NC(=O)C2CC2c2ccccc2)cc1 (stereo not drawn) | 2.4 (≈ 9.55 µM)
40 | Cc1cccc(CSc2nnc([C@@H]3CCCN3)o2)c1.Cl | > 46.8
41 | COc1ccc([N+](=O)[O-])cc1NC(=O)c1ccccc1SC | 0.4 (≈ 1.26 µM)
42 | COc1cccc(C(=O)Nc2cccc3ccccc23)c1 | 1.5 (≈ 5.41 µM)
43 | COc1ccccc1OCCn1c(SCC(=O)O)nc2ccccc21 | > 53.8
44 | C=CCN1C(=O)c2ccc(C(=O)N3CCC(C(N)=O)CC3)cc2C1=O | 47.9 (≈ 140 µM)
45 | Cn1cccc1C(=O)NC(=O)COC(=O)c1ccc(S(C)(=O)=O)c([N+](=O)[O-])c1 | 14.7 (≈ 35.9 µM)
46 | O=C1CSC(=Nc2cccc(Cl)c2Cl)N1 | 37.4 (≈ 143 µM)
47 | CSc1nnc(C)c(=O)n1COC(=O)/C=C/c1ccccc1 | > 47.6
48 | Cc1cc(-c2ccc(S(=O)(=O)N3CCCCC3)s2)on1 | 2.6 (≈ 8.32 µM)

Row | Structure (SMILES) | solubility kinetic [µg/mL]
49 | O=C(O)c1nn(-c2cccc(C(F)(F)F)c2)ccc1=O | > 42.6
50 | CCOc1ccc2nc(SCC(=O)NCc3ccc(OC)cc3)[nH]c2c1 | 20.2 (≈ 54.4 µM)
51 | O=C(O)COCc1nc2ccccc2s1 | 31.7 (≈ 142 µM)
52 | CNc1nc(-c2ccc(S(=O)(=O)N3CCCCC3)cc2)cs1 | 2.8 (≈ 8.3 µM)
53 | COc1cccc(N2C(=O)/C(=C\c3cccs3)NC2=S)c1 | 4.1 (≈ 13 µM)
54 | O=C(CSC(=S)N1CCCCC1)c1c(F)cccc1F | 4 (≈ 12.7 µM)
55 | CCC(C)c1ccc(S(=O)(=O)Nc2cccnc2)cc1.Cl (stereo not drawn) | 35.9
56 | COc1ccc(N2CCOCC2)c(NC(=O)c2cc3ccccc3o2)c1 | < 0.4
57 | O=C(NC1CCCCC1)c1cc(-c2cccc(Cl)c2)on1 | 0.7 (≈ 2.3 µM)
58 | Cc1cc(NC(=O)CSc2nc3cc(C)c(C)cc3cc2C)no1 | < 0.2
59 | CCOc1ccc(N2CC(C(=O)NCc3ccco3)CC2=O)cc1 (stereo not drawn) | > 49.3
60 | CCCCCCCCCC(=O)N[C@H](CN1CCOCC1)[C@H](O)c1ccccc1.Cl | > 64.1
61 | CCC(CO)NCC#Cc1ccccc1.Cl (stereo not drawn) | > 36
62 | COc1ccccc1CNC(=O)C1CCC(=O)N1C(C)C (stereo not drawn) | > 43.6
63 | N/C(=N\OC(=O)c1ccc(Br)o1)c1cccnc1 | 39.1 (≈ 126 µM)
64 | CCOCCCNc1ccc(N2C(=O)CCCC2=O)cc1[N+](=O)[O-] | > 50.3
65 | O=C(c1ccccc1F)N1C(=O)c2cccc3cccc1c23 | < 0.6
66 | COc1cc(NC(=O)C(=O)N2CCN(C)CC2)c(OC)cc1Cl | > 51.3
67 | CC(OC(=O)CCc1nc2ccccc2c(=O)[nH]1)C(=O)Nc1cccc(C(F)(F)F)c1 (stereo not drawn) | > 65
68 | Fc1ccc(-c2csc(-c3ccncc3)n2)cc1 | 1.3 (≈ 5.07 µM)
69 | COc1nc(/C=C/N(C)C)c([N+](=O)[O-])c(OC)n1 | 17.2 (≈ 67.7 µM)
70 | Cc1cccc(OCC(=O)NC2CCCCCC2)c1C | < 0.6
71 | Cc1cc(C)c2c(N)c(C(=O)Nc3ccc(F)cc3)sc2n1 | 1.1 (≈ 3.49 µM)
72 | CCOP(=O)(OCC)C(O)c1cccnc1 (stereo not drawn) | > 36.8

Row | Structure (SMILES) | solubility kinetic [µg/mL]
73 | Cc1ccc(S(=O)(=O)N2CCC(=O)CC2)cc1 | > 38
74 | Cn1c(SCC(=O)NC2CCS(=O)(=O)C2)nc2ccccc21 (stereo not drawn) | > 50.9
75 | CCN(CC)C(=O)c1csc(Nc2cccc3ccccc23)n1 | 7.2 (≈ 22.1 µM)
76 | CCCC(=O)Nc1cc(S(=O)(=O)N2CCOCC2)ccc1N1CCCCC1 | > 59.3
77 | CC(=O)c1ccc(S(=O)(=O)NCC(=O)NC(c2nc3ccccc3[nH]2)C(C)C)cc1 (stereo not drawn) | > 64.3
78 | O=C(CCN1C(=O)C2CC=CCC2C1=O)Nc1nccs1 (stereo not drawn) | > 45.8
79 | CCOC(=O)c1c(/N=C/c2cccc([N+](=O)[O-])c2O)sc2c1CCC2 | 49.9 (≈ 138 µM)
80 | O=c1sc2ccccc2c(N2CCCC2)c1[N+](=O)[O-] | > 41.4
81 | COc1ccc(NC(=O)COC(=O)C(NC(=O)c2ccc(C)cc2)C(C)C)cn1 (stereo not drawn) | 57.9 (≈ 145 µM)
82 | OCCOCCN1CCN(C(=S)Nc2ccccc2)CC1 | > 46.4
83 | O=[N+]([O-])c1ccc(O)c(CN2CCCCCC2)c1 | > 37.5
84 | O=C1C(Cc2ccccc2O)NC(=S)N1c1ccccc1 (stereo not drawn) | 44.6 (≈ 149 µM)
85 | CC(=O)Nc1nc(-c2ccc3c(c2)CC(C)N3C(=O)C2CC2)c(C)s1 (stereo not drawn) | 35 (≈ 98.5 µM)
86 | O=C(Nc1nccs1)c1ccc(-c2ccc(F)c(Cl)c2)o1 | 0.5 (≈ 1.55 µM)
87 | Cc1ccc2nc(-c3ccc(Br)cc3)cn2c1 | < 0.3
88 | CCN(CC)S(=O)(=O)N1CCC(C(=O)NCc2ccco2)CC1 | > 51.5
89 | CCc1cccc(NC(=O)C2CCCN(c3cnccn3)C2)c1 (stereo not drawn) | > 46.6
90 | O=C(CSc1nc(C(F)(F)F)cc(=O)[nH]1)N1CCCC1 | > 46.1
91 | Cc1ccc(NC(=O)COc2ccc(C(=O)c3ccccc3)cc2)c(O)c1 | 2.8 (≈ 7.75 µM)
92 | O=C(NCCNc1ccc([N+](=O)[O-])cc1)c1cccs1 | 6.7 (≈ 23 µM)
93 | O=C(COC(=O)/C=C/c1cccc(F)c1)NC1CCCC1 | 7.8 (≈ 26.8 µM)
94 | CCOc1ccc(C(=O)CCC(=O)NC(C)C(=O)OC)cc1 (stereo not drawn) | > 46.1
95 | CS(=O)(=O)N1CCC(C(=O)N2CCN(Cc3ccccc3)CC2)CC1 | > 54.8
96 | CC(C)n1c(CN(C)c2ccccc2)nc2ccccc21.Cl | 42.4

Row | Structure (SMILES) | solubility kinetic [µg/mL]
97 | CC(C)(CCl)C(=O)Nc1ccnc(-c2ccncc2)n1 | 6 (≈ 20.6 µM)
98 | Cc1ccc2nc(N3CCOCC3)c(C=O)c(=O)n2c1 | > 41
99 | CCN(C(=O)N1CCOCC1)c1ccccc1C | 26 (≈ 105 µM)
100 | CCOc1nc2ccccc2cc1C=O | 6.6 (≈ 32.8 µM)
101 | O=C1OCC2=C1C(c1ccc(F)cc1)CC(=O)N2c1ccc(F)cc1 (stereo not drawn) | > 51.2
102 | Cc1c(C(=O)N2CCCC(C(F)(F)F)C2)oc2ccccc12 (stereo not drawn) | 31.8 (≈ 102 µM)
103 | O=C(NCc1ccco1)C(=O)c1cn(CC(=O)N2CCCCCC2)c2ccccc12 | 14.3 (≈ 35.1 µM)
104 | CCc1cccc(CC)c1N(COC)C(=O)Cn1cnc2ccccc21 | > 52.7
105 | CCN1CCC(N(C)C2CCCCC2)CC1 | 24 (≈ 107 µM)
106 | CCOc1ccc2[nH]c3ncccc3c(=O)c2c1 | 3.7 (≈ 15.4 µM)
107 | Cc1nnc(SCC(=O)Nc2nccs2)o1 | > 38.4
108 | O=c1[nH]c2ccc([N+](=O)[O-])cc2nc1/C=C(\O)c1ccccc1 | 2.3 (≈ 7.44 µM)
109 | Br.CC(C)(C)c1cc(C2=CSC3=NCCN23)cc(C(C)(C)C)c1O | 10.7
110 | N/C(=N\OC(=O)c1ccoc1)c1ccc(Br)cc1 | 9.2 (≈ 29.8 µM)
111 | C=C1SC(Nc2c(C)cccc2C)=NC12CCCCC2 | < 0.3
112 | CC(C)[C@H](NC(=O)c1ccccc1Cl)C(=O)OCC(=O)N1CCCCC1 | > 57.1
113 | CC(C)(C)Nc1c(-c2ccc(O)cc2)nc2ccc(Cl)cn12 | 0.4 (≈ 1.27 µM)
114 | CCN(CC)CC#CC(O)(c1ccccc1)c1ccccc1 | > 44
115 | COCCN(C(=S)Nc1cccc(C)c1)C(C)c1cccnc1 (stereo not drawn) | 48.2 (≈ 146 µM)
116 | CC1CN(C)CCC1OC(=O)c1ccccc1.Cl (stereo not drawn) | > 40.5
117 | O=C(COC(=O)COc1ccc(Cl)cc1Cl)NC1CC1 | > 47.7
118 | Cc1ccc(Cn2cc(CCC(=O)O)c3ccccc32)cc1 | > 44
